In patent US11458138B2 (Novartis AG, priority 2017, dated 2022) one finds IC50 and EC50 data, which are given here for 27 molecules.

SMILES strings stand for the structures. pEC50, pIC50: −log10 of the molar value.

For one assay, the target named is LATS1 (Homo sapiens (Human), UniProt O95835). Description: LATS1 biochemical assay (Table 1A, Compound Examples 1-290; method in the earlier part).
For assay [1], the system named is Phospho-YAP (Ser127) in JHH-5 cells. As to the kind of experiment: pYAP HTRF Assay (JHH-5 cells). The assay is classed as cell-based. As to conditions: 2 hours. How it is done: Briefly, JHH-5 cells are suspended at 0.48×10^6 cells/ml in William's E medium without phenol-red (Thermo Fisher Scientific Gibco catalog number A1217601) supplemented with 10% (v/v) heat-inactivated fetal bovine serum (Thermo Fisher Scientific Gibco catalog number 16140071) and penicillin-streptomycin at 100 U/ml each (Thermo Fisher Scientific Gibco catalog number 15140122). Cells are dispensed into 384well clear bottom culture plates (50 ul/well, at 24000 cells per well, Greiner catalog number 781091), and incubated for 24 hours in a cell culture incubator at 37° C. Test compounds are transferred into culture plates containing JHH-5 cells using an Echo550 (Labcyte) acoustic dispenser (50 nl/well), followed by incubation for 2 hours at 37° C. Lysis buffer (part of CisBio kit catalog number 64YAPPEI) is added to the assay plates as a four-fold concentrate (corresponding to 16 ul/well) and incubated for 30 minutes at room temperature with agitation. Lysate is transferred from culture plates into white low-volume 384well assay plates (12 ul/well, Greiner catalog number 784075), followed by the addition of 3 ul/well of detection antibodies (part of CisBio kit catalog number 64YAPPEI: 1:40 dilution of each pYAP d2 antibody and pYAP cryptate antibody stocks). The plates are sealed and incubated overnight (18 hours) at room temperature protected from light. Plates are read on an EnVision plate reader (Perkin Elmer) at emission wavelengths of 665 nm and 620 nm. The HTRF signal ratio x per well is calculated as [x=Signal(665 nm)/Signal(620 nm)×10000] as specified in the manufacturer's protocol.

For assay [2], the system named is YAP nuclear translocation in HaCaT cells. Description: YAP Translocation Assay (HaCaT Cells). The following applies: Homo sapiens, 24 hours. It is filed as cell-based, human. In short, it runs like this:
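HaCaT cells (20,000/well) in DMEM + 10% FBS were plated overnight at 37° C, then exposed to compound for 24 h at 37° C. Cells were fixed with PFA, permeabilized with 0.1% Triton/1.5% BSA and imaged by high-content imaging.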

Assay [3] has as its system Phospho-YAP (SER127) in HaCaT cells. As to the kind of experiment: pYAP HTRF Assay (HaCaT Cells). It is filed as cell-based, human. The following applies: Homo sapiens, 2 hours. In outline: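 HaCaT cells at 5500 cells/well were cultured 48 hours at 37° C, then treated with compound for 2 hours. Phospho-YAP (Ser127) was detected by HTRF after an overnight (20 hrs) room-temperature incubation, read as the 665 nm/620 nm ratio.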

Sequence of LATS1 (O95835 whole entry, looked up): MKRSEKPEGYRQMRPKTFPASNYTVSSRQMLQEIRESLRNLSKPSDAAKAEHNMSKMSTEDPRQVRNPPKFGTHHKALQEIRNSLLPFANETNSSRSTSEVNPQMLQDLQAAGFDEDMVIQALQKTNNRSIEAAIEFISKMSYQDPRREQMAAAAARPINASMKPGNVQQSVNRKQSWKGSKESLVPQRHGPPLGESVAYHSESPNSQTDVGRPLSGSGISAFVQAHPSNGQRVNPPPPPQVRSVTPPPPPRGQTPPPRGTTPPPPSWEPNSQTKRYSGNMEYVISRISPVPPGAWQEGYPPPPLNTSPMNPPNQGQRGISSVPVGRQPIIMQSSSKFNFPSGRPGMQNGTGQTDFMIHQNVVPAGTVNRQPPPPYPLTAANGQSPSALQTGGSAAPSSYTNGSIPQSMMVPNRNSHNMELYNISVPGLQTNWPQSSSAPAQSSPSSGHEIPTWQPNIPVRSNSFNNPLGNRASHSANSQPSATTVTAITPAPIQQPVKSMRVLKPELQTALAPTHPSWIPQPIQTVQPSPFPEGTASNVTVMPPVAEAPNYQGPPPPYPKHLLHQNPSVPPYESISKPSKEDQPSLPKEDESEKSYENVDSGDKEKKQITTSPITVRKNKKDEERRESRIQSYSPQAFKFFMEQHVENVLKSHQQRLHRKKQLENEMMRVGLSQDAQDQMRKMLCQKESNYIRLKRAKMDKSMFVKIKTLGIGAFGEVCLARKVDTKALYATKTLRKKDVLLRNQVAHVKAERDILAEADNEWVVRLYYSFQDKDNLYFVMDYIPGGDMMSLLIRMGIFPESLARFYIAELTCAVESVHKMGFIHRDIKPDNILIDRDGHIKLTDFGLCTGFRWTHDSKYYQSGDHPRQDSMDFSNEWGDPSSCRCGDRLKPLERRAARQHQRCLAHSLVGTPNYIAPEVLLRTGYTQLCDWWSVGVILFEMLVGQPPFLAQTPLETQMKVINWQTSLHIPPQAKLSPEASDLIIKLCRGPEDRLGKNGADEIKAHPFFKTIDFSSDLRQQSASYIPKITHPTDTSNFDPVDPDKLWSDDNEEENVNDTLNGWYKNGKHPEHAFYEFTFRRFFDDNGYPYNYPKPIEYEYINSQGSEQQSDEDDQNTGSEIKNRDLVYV
Sequence of LATS1 (Q7L9L4 whole entry partner, looked up): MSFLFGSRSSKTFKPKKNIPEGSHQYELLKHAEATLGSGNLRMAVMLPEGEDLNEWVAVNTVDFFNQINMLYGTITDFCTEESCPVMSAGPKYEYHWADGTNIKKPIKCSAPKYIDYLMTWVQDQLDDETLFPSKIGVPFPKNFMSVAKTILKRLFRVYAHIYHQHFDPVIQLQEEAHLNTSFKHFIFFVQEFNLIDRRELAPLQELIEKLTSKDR

As to `CC[C@H](C)Nc1cc(-c2ccncc2)nc2cnccc12` [Example 256, N-[(2S)-butan-2-yl]-2-(pyridin-4-yl)-1,7-naphthyridin-4-amine], the pIC50 against LATS1 is 8.10; in assay [1] it was below 5.00; in assay [3], 4.96. For the same molecule, the pEC50 in assay [2] was 4.81.
With `CC(C)(Cc1c[nH]c2ccccc12)Nc1nc(-c2ccncc2)nc2cnccc12` [Example 79, N-[1-(1H-indol-3-yl)-2-methylpropan-2-yl]-2-(pyridin-4-yl)pyrido[3,4-d]pyrimidin-4-amine], the pIC50 at LATS1 was 7.96; in assay [1], 5.68; in assay [3], 6.12. The molecule further showed a pEC50 in assay [2] of 5.41.
As for `Cc1cnccc1-c1nc(NC(C)(C)C)c2ccncc2n1` [Example 117, N-tert-butyl-2-(3-methylpyridin-4-yl)pyrido[3,4-d]pyrimidin-4-amine], the pIC50 on LATS1 was 8.40; in assay [1], below 5.00; in assay [3], 5.64. The molecule further had a negative logarithm of the EC50 (pEC50) in assay [2] of 5.35.
For `Cc1nccc2c(NC3(C)CC3)nc(-c3ccncc3)nc12` [Example 199, 8-methyl-N-(1-methylcyclopropyl)-2-(pyridin-4-yl)pyrido[3,4-d]pyrimidin-4-amine], the pIC50 on LATS1 was 9.00; in assay [1] it was 5.49. In assay [2], this molecule showed a pEC50 of 5.04.
For the molecule `CC(C)(C)Nc1cc(-c2ccnc(N)c2)nc2cnccc12` [Example 274, 2-(2-aminopyridin-4-yl)-N-tert-butyl-1,7-naphthyridin-4-amine], the pIC50 on LATS1 is 7.89; in assay [1], below 5.00. Also, the pEC50 in assay [2] was 4.76.
For `COCC(C)(C)Nc1cc(-c2ccncc2)nc2cnccc12` [Example 258, N-(1-methoxy-2-methylpropan-2-yl)-2-(pyridin-4-yl)-1,7-naphthyridin-4-amine], the figures for the pIC50 (against LATS1; in assay [1]) were 7.64 and below 5.00, respectively. Moreover, the pEC50 in assay [2] was 5.00.
`CCN(CC)c1cc(-c2ccncc2F)nc2cnccc12` [Example 275, N,N-diethyl-2-(3-fluoropyridin-4-yl)-1,7-naphthyridin-4-amine]: the pIC50 at LATS1 was 7.96; in assay [1], below 5.00. Also, the pEC50 in assay [2] is 4.82.
`CN(C)CCC(C)(C)Nc1nc(-c2ccncc2)nc2cnccc12` [Example 109, dimethyl(3-methyl-3-{[2-(pyridin-4-yl)pyrido[3,4-d]pyrimidin-4-yl]amino}butyl)amine]: the results for the pIC50 in assay [1] and in assay [3] were 5.82 and 6.01, respectively. In assay [2], this molecule had a pEC50 of 5.33.
Consider `CC(C)(CNCC(=O)O)Nc1nc(-c2ccncc2)nc2cnccc12` [Example 30, 2-[(2-methyl-2-{[2-(pyridin-4-yl)pyrido[3,4-d]pyrimidin-4-yl]amino}propyl)amino]acetic acid], for which the results for the pIC50 (on LATS1; in assay [1]) were 7.41 and below 5.00, respectively. For the same molecule, in assay [2], the pEC50 is below 4.70.
On to `CN(C)CCC(C)(C)Nc1cc(-c2ccncc2F)nc2cnccc12` [Example 276, (3-{[2-(3-fluoropyridin-4-yl)-1,7-naphthyridin-4-yl]amino}-3-methylbutyl)dimethylamine], for which the pIC50 was 7.77 at LATS1 and below 5.00 in assay [1]. The same molecule gave a pEC50 in assay [2] below 4.70.
Take `CC[C@@H](C)Nc1cc(-c2ccncc2)nc2cnccc12` [Example 257, N-[(2R)-butan-2-yl]-2-(pyridin-4-yl)-1,7-naphthyridin-4-amine]: the pIC50 against LATS1 was 7.66; in assay [1], below 5.00. The molecule also showed a pEC50 in assay [2] below 4.70.
As for `CC1(Nc2nc(-c3ccnc(N)c3)nc3cnccc23)CC1` [Example 138, 4-{4-[(1-methylcyclopropyl)amino]pyrido[3,4-d]pyrimidin-2-yl}pyridin-2-amine], the pIC50 against LATS1 was 8.70; in assay [3], 5.47. The same molecule showed a pEC50 in assay [2] of 5.04.
Turning to `CCN(c1nc(-c2ccncc2C)nc2cnccc12)C(C)C` [Example 123, N-ethyl-2-(3-methylpyridin-4-yl)-N-(propan-2-yl)pyrido[3,4-d]pyrimidin-4-amine], the pIC50 against LATS1 is 7.74; in assay [3], 5.02. The same molecule had a pEC50 in assay [2] of 5.04.
On to `CCCNc1cc(-c2ccncc2)nc2cnccc12` [Example 268, N-propyl-2-(pyridin-4-yl)-1,7-naphthyridin-4-amine], for which the pIC50 at LATS1 was 7.74; in assay [1], below 5.00. Further, the pEC50 in assay [2] is below 4.70.
In the case of `CC[C@H](C)Nc1nc(-c2ccncc2)nc2cnccc12` (single isomer, unassigned) [Example 68a], the pIC50 is 9.00 on LATS1 and 5.84 in assay [3]. The molecule also gave a pEC50 in assay [2] of 5.77.
Take `OC1(CNc2nc(-c3ccncc3)nc3cnccc23)CCCC1` [Example 87, 1-({[2-(pyridin-4-yl)pyrido[3,4-d]pyrimidin-4-yl]amino}methyl)cyclopentan-1-ol]: the pIC50 is 7.52 against LATS1 and 4.29 in assay [3]. The same molecule showed a pEC50 in assay [2] below 4.70.
For the molecule `CC(C)(CCS(C)(=O)=O)Nc1nc(-c2ccncc2)nc2cnccc12` [Example 22, N-(4-methanesulfonyl-2-methylbutan-2-yl)-2-(pyridin-4-yl)pyrido[3,4-d]pyrimidin-4-amine], the values for the pIC50 (on LATS1; in assay [3]) were 8.15 and 4.94, respectively. In assay [2], this molecule had a pEC50 of 4.89.
On to `CC(C)(Nc1nc(-c2ccncc2)nc2cnccc12)C1CC1` [Example 1, N-(2-cyclopropylpropan-2-yl)-2-(pyridin-4-yl)pyrido[3,4-d]pyrimidin-4-amine], for which the negative-log IC50 (pIC50) against LATS1 is 9.00; in assay [3] it was 7.72. In assay [2], the pEC50 is 6.49.
As for `CC1(C)CC(O)CCN1c1cc(-c2ccncc2Cl)nc2cnccc12` (stereo not drawn) [Example 283, 1-[2-(3-chloropyridin-4-yl)-1,7-naphthyridin-4-yl]-2,2-dimethylpiperidin-4-ol], the pIC50 in assay [1] is below 5.00; in assay [3], 5.08. For the same molecule, the pEC50 in assay [2] is 4.85.
On to `c1cc(-c2cc(NC3CCCC3)c3ccncc3n2)ccn1` [Example 264, N-cyclopentyl-2-(pyridin-4-yl)-1,7-naphthyridin-4-amine], for which the results for the pIC50 in assay [1] and in assay [3] were below 5.00 and 4.83, respectively. This molecule also showed a pEC50 in assay [2] of 4.95.
Take `CC1(Nc2nc(-c3cncs3)nc3cnccc23)CC1` [Example 149, N-(1-methylcyclopropyl)-2-(1,3-thiazol-5-yl)pyrido[3,4-d]pyrimidin-4-amine]: the pIC50 on LATS1 was 6.77; in assay [3], below 5.00. Moreover, the negative-log EC50 (pEC50) in assay [2] was below 4.70.
The like results for `CC1(Nc2nc(-c3ccc4[nH]ncc4c3)nc3cnccc23)CC1` [Example 143, 2-(1H-indazol-5-yl)-N-(1-methylcyclopropyl)pyrido[3,4-d]pyrimidin-4-amine] were, in that order, 8.15, below 5.00 and below 4.70.
Turning to `Cc1[nH]c2ncccc2c1-c1nc(NC(C)(C)C)c2ccncc2n1` [Example 114, N-tert-butyl-2-{2-methyl-1H-pyrrolo[2,3-b]pyridin-3-yl}pyrido[3,4-d]pyrimidin-4-amine], the values for the pIC50 (against LATS1; in assay [3]) were 8.70 and 6.25, respectively. The molecule also showed a pEC50 in assay [2] of 5.88.
For `CC(C)(CN1CCOCC1)Nc1cc(-c2ccncc2F)nc2cnccc12` [Example 284, 2-(3-fluoropyridin-4-yl)-N-[2-methyl-1-(morpholin-4-yl)propan-2-yl]-1,7-naphthyridin-4-amine], the pIC50 on LATS1 is 7.52; in assay [3], 4.33. In assay [2], this molecule had a pEC50 below 4.39.
For `CC1(Nc2nc(-c3ccncc3)nc3cncc(Cl)c23)CC1` [Example 252, 5-chloro-N-(1-methylcyclopropyl)-2-(pyridin-4-yl)pyrido[3,4-d]pyrimidin-4-amine], in that order: 8.70, 5.16 and below 5.00.
With `O=C(O)CC(Nc1nc(-c2ccncc2)nc2cnccc12)C(F)(F)F` (stereo not drawn) [Example 44, 4,4,4-trifluoro-3-{[2-(pyridin-4-yl)pyrido[3,4-d]pyrimidin-4-yl]amino}butanoic acid], the values for the pIC50 (against LATS1; in assay [3]) were below 5.60 and below 5.00, respectively. In assay [2], this molecule gave a pEC50 below 4.70.
For `CC(C)(Nc1nc(-c2ccncc2)nc2cnccc12)c1ccccc1` [Example 81, N-(2-phenylpropan-2-yl)-2-(pyridin-4-yl)pyrido[3,4-d]pyrimidin-4-amine], the pIC50 was 7.96 against LATS1 and 4.37 in assay [3]. In addition, the pEC50 in assay [2] is 4.77.
